Measurements from article PMC11678328, “Phosphine Oxide Indenoquinoline Derivatives: Synthesis and Biological Evaluation as Topoisomerase I Inhibitors and Antiproliferative Agents” (Molecules, 2024).

Columns and labels:
[1] = tested on: SKOV3 (human ovarian carcinoma); test: CCK-8 cytotoxicity assay, SKOV3; type: cell-based; conditions: SK-OV-3, SKOV3 cells, 48h
Excerpt: (§1) The cytotoxic effects of the newly synthesized diphenyl(tetrahydro-5H-indeno[2,1-c]quinolin-2-yl)phosphine oxides 8, diphenyl(7H-indeno[2,1-c]quinolin-2-yl)phosphine oxides 9, and diphenyl(7-oxo-7H-indeno[2,1-c]quinolin-2-yl)phosphine oxides 10 derivatives were studied against several human cell lines: A549 (carcinomic human alveolar basal epithelial cell), SKOV3 (human ovarian carcinoma), and HEK293 (human embryonic kidney). Furthermore, in order to analyze the selective cytotoxicity facing exclusively cancerous cell lines, toxicity against a non-cancerous cell line (MRC-5, lung fibroblast cells) was also evaluated (Table 3). The cell counting kit (CCK-8) assay was employed to assess the growth inhibition and cell proliferation inhibitory activities of the compounds, which are described in Table 3 as IC50 values.
(§2) Cells were cultured according to the supplier’s instructions. Cells were seeded in 96-well plates at a density of 1.5–3 × 10^3 cells per well and incubated overnight in 0.1 mL of media supplied with 10% Fetal Bovine Serum (Lonza) in a 5% CO2 incubator at 37 °C. On day 2, drugs were added and the samples were incubated for 48h. After treatment, 10 μL of the cell counting kit-8 was added into each well for an additional 2h incubation at 37 °C. The absorbance of each well was determined by an Automatic Elisa Reader System at 450 nm wavelength (deducting 620 nm). CPT was used as the positive control.

[2] = tested on: A549 (carcinomic human alveolar basal epithelial cell); test: CCK-8 cytotoxicity assay, A549; type: cell-based; conditions: for IC50: A549 cells, 48h, CCK-8
Excerpt: as §1, §2

[3] = target: T1, human TOP1 (Homo sapiens, UniProt P11387); test: TOP1 supercoiled plasmid DNA relaxation assay; type: biochemical; conditions: 30 min reaction; compounds at 100 μM; semiquantitative
T1 construct: made in house; host or cells: Saccharomyces cerevisiae TOP1 null strain RS190, plasmid pHT143 (GAL promoter)
T1 sequence (P11387 1-765): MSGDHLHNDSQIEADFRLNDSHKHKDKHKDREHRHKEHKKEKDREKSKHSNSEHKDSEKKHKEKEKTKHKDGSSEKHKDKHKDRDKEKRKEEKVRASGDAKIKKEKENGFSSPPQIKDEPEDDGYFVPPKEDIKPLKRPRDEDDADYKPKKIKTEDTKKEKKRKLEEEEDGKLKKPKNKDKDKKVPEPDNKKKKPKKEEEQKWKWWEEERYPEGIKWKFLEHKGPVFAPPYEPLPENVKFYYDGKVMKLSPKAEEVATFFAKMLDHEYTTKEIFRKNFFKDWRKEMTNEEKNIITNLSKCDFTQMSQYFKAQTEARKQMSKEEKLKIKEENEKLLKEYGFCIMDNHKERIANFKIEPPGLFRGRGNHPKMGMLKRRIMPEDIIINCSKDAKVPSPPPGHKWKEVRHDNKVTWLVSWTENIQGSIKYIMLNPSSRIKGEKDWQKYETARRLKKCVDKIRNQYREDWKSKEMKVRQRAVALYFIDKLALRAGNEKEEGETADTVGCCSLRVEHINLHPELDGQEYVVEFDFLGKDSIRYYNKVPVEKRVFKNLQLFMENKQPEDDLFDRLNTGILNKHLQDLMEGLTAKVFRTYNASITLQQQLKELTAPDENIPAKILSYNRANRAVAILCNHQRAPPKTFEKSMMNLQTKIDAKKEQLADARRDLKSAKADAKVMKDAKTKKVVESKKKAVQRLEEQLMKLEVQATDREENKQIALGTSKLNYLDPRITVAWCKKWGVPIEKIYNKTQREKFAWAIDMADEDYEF

[4] = target: T1, human TOP1; test: TOP1 supercoiled plasmid DNA relaxation assay; type: biochemical; conditions: for Persistence of TOP1 inhibition over the time course: 100 μM, in words; for TOP1 Inhibition 1 min: 1 min reaction; for TOP1 Inhibition 1 min / TOP1 Inhibition 3 min / TOP1 Inhibition 5 min: compounds at 100 μM, semiquantitative; for TOP1 Inhibition 3 min: 3 min reaction; for TOP1 Inhibition 5 min: 5 min reaction
Excerpt: The effect of the previously prepared compounds as TOP1 inhibitors was studied. A conventional supercoiled plasmid relaxation assay was used to determine if the newly fused tetrahydroindenoquinolines 8, more aromatic indenoquinolines 9, and carbonyl derivatives 10 with phosphine oxide substituents inhibit human TOP1 activity by converting supercoiled plasmid DNA to its relaxed form. In these experiments, compound samples were mixed with the enzyme followed by the addition of a supercoiled plasmid DNA substrate, and incubation continued for increasing time intervals (1 min, 3 min, and 5 min). The reaction was terminated by the addition of SDS. DNA relaxation products were then resolved by 1% agarose electrophoresis gel and visualized by gel red staining.
The yeast Saccaromyces cerevisiae TOP1 null strain RS190, which was used for the expression of recombinant human TOP1, was a kind gift from R. Sternglanz (State University of New York, Stony Brook, NY, USA). Plasmid pHT143, for the expression of recombinant TOP1 under the control of an inducible GAL promoter, was described. The plasmids pHT143 were transformed into the yeast S. cerevisiae strain RS190. The proteins were expressed and purified by affinity chromatography essentially as described. The protein concentrations were estimated from Coomassie blue-stained SDS/polyacrylamide gels by comparison to serial dilutions of bovine serum albumin (BSA).
TOP1 activity was assayed using a DNA relaxation assay by incubating 110 ng/mL of TOP1 with 0.5 µg of negatively supercoiled pUC18 in […] of reaction buffer (20 mM Tris HCl, 0.1 mM Na2EDTA, 10 mM MgCl2, […] acetylated BSA, and 150 mM KCl, pH 7.5). The effect of the synthesized phosphorylated derivatives 8, 9, and 10 on the TOP1 activity was measured by adding different concentrations of the compounds, at different time points, as indicated in the text. The reactions were performed at 37 °C stopped by the addition of 0.5% SDS after the indicated time intervals. The samples were protease-digested and electrophoresed in a horizontal 1% agarose gel in 1xTBE (50 mM Tris, 45 mM boric acid, 1 mM EDTA) at 25V during 18h. The gel was stained with gel red (BIOTIUM, 5 mg/mL), destained with water, and photographed under UV illumination. Since all drugs were dissolved in dimethyl sulfoxide (DMSO), a […] control sample containing the same DMSO concentration as the samples incubated with the drugs was included in all experiments.

[5] = tested on: MRC-5, lung fibroblast cells; test: CCK-8 cytotoxicity assay, MRC5; type: cell-based, human; conditions: for IC50: Homo sapiens, MRC5 non-cancerous cells, 48h, CCK-8
Excerpt: as §1, §2

[6] = tested on: HEK293 (human embryonic kidney); test: CCK-8 cytotoxicity assay, HEK293; type: cell-based; conditions: HEK293 cells, 48h
Excerpt: as §1, §2

TOP1 Inhibition 1 min [4]	TOP1 Inhibition 3 min [4]	TOP1 Inhibition 5 min [4]	SMILES	IC50 [1] [µM]	IC50 ([2]; Homo sapiens, A549, 48 h) [µM]	TOP1 Inhibition 30 min [3]	Persistence of TOP1 inhibition over the time course [4]	IC50 [5] [µM]	Cytotoxicity against MRC5 (in words) ([5]; non-cancerous cell line)	IC50 [6] [µM]	Cytotoxicity against A549 (in words) [2]	IC50 ([2]; listed as 9k) [µM]
++	++	++	O=P(c1ccccc1)(c1ccccc1)c1ccc2c(c1)C1c3ccccc3CC1C(c1cccc(F)c1)N2 (centres unmarked) [Compound 8d, Diphenyl(6-(3-fluorophenyl)-6,6a,7,11b-tetrahydro-5H-indeno[2,1-c]quinolin-2-yl)phosphine oxide]	> 50	43.1 ± 12.1			> 50		> 50		
++	++	++	O=P(c1ccccc1)(c1ccccc1)c1ccc2c(c1)C1c3ccccc3CC1C(c1ccc(F)c(F)c1)N2 (centres unmarked) [Compound 8e, Diphenyl(6-(3,4-difluorophenyl)-6,6a,7,11b-tetrahydro-5H-indeno[2,1-c]quinolin-2-yl)phosphine oxide]	13.2 ± 2.79	> 50			> 50		> 50		
+ (weak inhibition)	+ (weak inhibition)	+ (weak inhibition)	O=P(c1ccccc1)(c1ccccc1)c1ccc2c(c1)C1c3ccccc3CC1C(c1ccc(F)cc1F)N2 (centres unmarked) [Compound 8f, Diphenyl(6-(2,4-difluorophenyl)-6,6a,7,11b-tetrahydro-5H-indeno[2,1-c]quinolin-2-yl)phosphine oxide]	31 ± 3.17	> 50			> 50		> 50		
+ (weak inhibition)	++	++	O=P(c1ccccc1)(c1ccccc1)c1ccc2nc(-c3ccccc3)c3c(c2c1)-c1ccccc1C3 [Compound 9a, Diphenyl(6-phenyl-7H-indeno[2,1-c]quinolin-2-yl)phosphine oxide]	> 50	> 50		more persistent inhibition	> 50		> 50		
+ (weak inhibition)	+ (weak inhibition)	+ (weak inhibition)	O=P(c1ccccc1)(c1ccccc1)c1ccc2nc(-c3ccc(F)cc3)c3c(c2c1)-c1ccccc1C3 [Compound 9c]	> 50	> 50			> 50		> 50		
+ (weak inhibition)	+ (weak inhibition)	+ (weak inhibition)	O=P(c1ccccc1)(c1ccccc1)c1ccc2nc(-c3cccc(F)c3)c3c(c2c1)-c1ccccc1C3 [Compound 9d, Diphenyl(6-(3-fluorophenyl)-7H-indeno[2,1-c]quinolin-2-yl)phosphine oxide]	> 50	> 50			> 50		> 50		
++	++	++	O=P(c1ccccc1)(c1ccccc1)c1ccc2nc(-c3ccc(F)cc3F)c3c(c2c1)-c1ccccc1C3 [Compound 9f, Diphenyl(6-(2,4-difluorophenyl)-7H-indeno[2,1-c]quinolin-2-yl)phosphine oxide]	> 50	41.7 ± 7.25			> 50		> 50	slight cytotoxicity	
++	++	++	COc1ccc(-c2nc3ccc(P(=O)(c4ccccc4)c4ccccc4)cc3c3c2Cc2ccccc2-3)cc1 [Compound 9h, Diphenyl(6-(4-methoxyphenyl)-7H-indeno[2,1-c]quinolin-2-yl)phosphine oxide]									
+ (weak inhibition)	+ (weak inhibition)	+ (weak inhibition)	O=P(c1ccccc1)(c1ccccc1)c1ccc2nc(-c3ccc(Br)cc3)c3c(c2c1)-c1ccccc1C3 [Compound 9j, Diphenyl(6-(4-bromophenyl)-7H-indeno[2,1-c]quinolin-2-yl)phosphine oxide]	> 50	42.3 ± 2.09			> 50		> 50	slight cytotoxicity	> 50
+ (weak inhibition)	+ (weak inhibition)	+ (weak inhibition)	O=C1c2ccccc2-c2c1c(-c1cccc(F)c1)nc1ccc(P(=O)(c3ccccc3)c3ccccc3)cc21 [Compound 10d, (6-(3-Fluorophenyl)-7-oxo-7H-indeno[2,1-c]quinolin-2-yl)diphenylphosphine oxide]	> 50	> 50			> 50		> 50		
++	++	++	O=C1c2ccccc2-c2c1c(-c1ccc(F)c(F)c1)nc1ccc(P(=O)(c3ccccc3)c3ccccc3)cc21 [Compound 10e]	> 50	> 50			> 50		> 50		

SMILES	TOP1 Inhibition 1 min [4]	TOP1 Inhibition 3 min [4]	TOP1 Inhibition 5 min [4]	IC50 [1] [µM]	IC50 ([2]; Homo sapiens, A549, 48 h) [µM]	TOP1 Inhibition 30 min [3]	Persistence of TOP1 inhibition over the time course [4]	IC50 [5] [µM]	Cytotoxicity against MRC5 (in words) ([5]; non-cancerous cell line)	IC50 [6] [µM]	Cytotoxicity against A549 (in words) [2]	IC50 ([2]; listed as 9k) [µM]
CC[C@@]1(O)C(=O)OCc2c1cc1n(c2=O)Cc2cc3ccccc3nc2-1 [CPT, camptothecin, reference compound]	++	− (no inhibition)	− (no inhibition)	0.0055	0.001	− (no inhibition)	short-term reversible effect	0.11 ± 0.02	high toxicity			
